Read-outs that look alike come from different tables or passages of the source. Marks after values point to notes of the source that are not given here.
Experiments:
[1] = Plasma pharmacokinetics, Arm III (i.v. infusion), phase 1 trial; format: in vivo, human; conditions: for half-life: read-out: t1/2 (harmonic mean) (converted)
Experimental: Pharmacokinetics of ilorasertib were evaluated in the dose-escalation cohort on blood samples that were collected on cycle 1 days 1 and 15. Parameters determined: Cmax, time to Cmax (Tmax), terminal phase elimination half-life (t1/2), clearance, apparent oral clearance (CL/F), and area under the plasma concentration-time curve from time 0 to time of last measurable concentration (AUCt) and from time 0 to infinity (AUC∞). For Arm I, blood samples were collected prior to dosing and at 0.5, 1, 2, 3, 4, 6, 8, 10 or 12, and 24 h after dosing on cycle 1 days 1 and 15; of note, for institutions not able to collect the 10- or 12-h post-dose sample, the 24-h sample was replaced with 22-h and 28-h post-dose samples. In Arm II, for the first dose, blood samples were collected pre-dose and at 1, 2, 3, and 4 h post-dose on cycle 1 days 1 and 15; for the second dose, samples were collected pre-dose and at 1, 2, 3, 4, 18, and 24 h after second dose on cycle 1 days 1 and 15. In Arm III, blood samples were collected prior to infusion, at 1 h 55 min (just before end of infusion), and at 0.5, 1, 2, 4, 6, 8, 10, and 24 h after end of infusion on cycle 1 days 1 and 15; here also, for institutions not able to collect the 8-h or 10-h after-end-of-infusion samples, the 24-h sample was replaced with 22-h and 28-h post-dose samples. The liquid chromatography (LC)-mass spectrometry (MS)/MS method was developed and validated in the Bioanalysis Department of AbbVie. Fifty microliter of human plasma (K2EDTA as anticoagulant) was fortified with 300 μL of deuterium-stable labelled internal standard and mixed well. A HybridSPE precipitation plate (50 mg/96 wells, Supelco Analytical, Munich, Germany) was used to directly load and elute (under slight vacuum) the fortified samples into a clean collection plate. Samples were dried before reconstitution with 100 μL of 20/80 (v/v) acetonitrile/water, and injected for LC-MS/MS analysis. A Halo C8 (Wilmington, DE, USA; 2.7 μm, 2.1 × 30 mm) was used on an Agilent 1290 Infinity UPLC pump (Agilent Technologies, Santa Clara, CA) to carry out the separation. An isocratic condition with 25/75/0.1 (v/v/v) acetonitrile/water/98% formic acid was used as the mobile phase. The flow rate was set to be 0.6 mL/min. An MPS 3 C ([…] Ruhr, Germany) autosampler was used to introduce samples onto the UPLC system. An API 4000 mass spectrometer (Applied Biosystems, Foster City, CA) was used in the multiple reactions monitoring mode for the detection and quantitation of analyte. Descriptive statistics were used for demographic variables. The numbers and percentages of patients with treatment-emergent AEs (TEAEs) were tabulated using the Medical Dictionary for Regulatory Activities version 16.0 system organ class and preferred term, and further classified according to CTCAE version 4.0 criteria. The safety data set included all patients who received one or more doses of ilorasertib. The pharmacokinetic data set included all patients who received one or more doses of ilorasertib and had one or more pharmacokinetic samples. Values for pharmacokinetic parameters were determined using non-compartmental methods, with data analysed separately for each arm. A repeated measures analysis was performed for Tmax and dose-normalised Cmax, AUCt, and AUC∞. The model included random effects for patient and fixed effects for dose level, day, and the interaction of dose level and day. To assess effects of exposure on pharmacodynamic biomarkers, Cmax was employed as the directly measured marker of exposure for the rapid changes in DBP and PlGF pre-steady-state, while AUC∞ reflected exposure variability at the time of post-multiple-dose skin biopsy. Descriptive statistics were used to summarise ECOG performance status. The efficacy data set included all patients who received one or more doses of ilorasertib.

VEGFR2 = system: VEGFR2; design: method as in PMID 22935731; conditions: 1 mM ATP; read-out: Biochemical IC50 (95% confidence limits); cited from earlier work
CSF-1R = system: CSF-1R; design: method as in PMID 22935731; conditions: 1 mM ATP; read-out: Biochemical IC50 (95% confidence limits); cited from earlier work
Aurora B = system: Aurora B; design: method as in PMID 22935731; conditions: Aurora B autophosphorylation, nocodazole-arrested HeLa cells; read-out: Cellular PD marker IC50 (95% confidence limits); cited from earlier work
[2] = Arm III i.v. infusion 8 mg, day 1, N=4
[3] = Arm III i.v. infusion 8 mg, day 15, N=4
[4] = Arm III i.v. infusion 16 mg, day 1, N=1
[5] = Arm III i.v. infusion 16 mg, day 15, N=1
[6] = Arm III i.v. infusion 32 mg, day 1, N=2, mean (individual)
[7] = Arm III i.v. infusion 32 mg, day 15, N=2, mean (individual)
[8] = Arm III i.v. infusion all doses, day 1, N=7
[9] = Arm III i.v. infusion all doses, day 15, N=7
[10] = human, plasma, iv, 8 mg, Arm III i.v. infusion 8 mg, day 1, N=3
[11] = human, plasma, iv, 8 mg, Arm III i.v. infusion 8 mg, day 15, N=3
[12] = human, plasma, iv, 16 mg, Arm III i.v. infusion 16 mg, day 1, N=1
[13] = human, plasma, iv, 16 mg, Arm III i.v. infusion 16 mg, day 15, N=1
[14] = human, plasma, iv, 32 mg, Arm III i.v. infusion 32 mg, day 1, N=2, mean (individual)
[15] = human, plasma, iv, 32 mg, Arm III i.v. infusion 32 mg, day 15, N=2, mean (individual)
[16] = human, plasma, iv, Arm III i.v. infusion all doses, day 1, N=6
[17] = human, plasma, iv, Arm III i.v. infusion all doses, day 15, N=6

With `Nc1ncc(-c2cnn(CCO)c2)c2scc(-c3ccc(NC(=O)Nc4cccc(F)c4)cc3)c12` [ilorasertib, Ilorasertib] the “AUC∞/dose” value ([1]; Arm III i.v. infusion 8 mg, day 1, N=3) was 273 ± 38.5^b ng•h/mL/mg, the AUCt/dose [1, 2] was 185 ± 42.9 ng·h/mL/mg and the Cmax/dose [1, 2] was 29.3 ± 10.3 ng/mL/mg. For the same molecule, the “AUC∞/dose” value ([1]; Arm III i.v. infusion 8 mg, day 15, N=3) was 360 ± 249^b ng•h/mL/mg, the AUCt/dose [1, 3] was 219 ± 71.5 ng·h/mL/mg and the Cmax/dose [1, 3] was 30.8 ± 13.3 ng/mL/mg. For the same molecule, the AUCt/dose [1, 4] was 119 ng·h/mL/mg, the “AUC∞/dose” value [1, 4] was 152 ng·h/mL/mg and the Cmax [1, 4] was 0.37 µg/mL. The Cmax/dose [1, 4] was 22.9 ng/mL/mg, the AUCt/dose [1, 5] was 190 ng·h/mL/mg and the “AUC∞/dose” value [1, 5] was 215 ng·h/mL/mg. The Cmax [1, 5] was 0.74 µg/mL, the Cmax/dose [1, 5] was 46 ng/mL/mg and the AUCt/dose [1, 6] was 265 (390, 139) ng•h/mL/mg. For the same molecule, the “AUC∞/dose” value [1, 6] was 287 (424, 150) ng•h/mL/mg, the Cmax [1, 6] was 1.31 (1.69, 0.94) μg/mL and the Cmax/dose [1, 6] was 41.0 (52.8, 29.2) ng/mL/mg. For the same molecule, the AUCt/dose [1, 7] was 228 (304, 153) ng•h/mL/mg, the “AUC∞/dose” value [1, 7] was 263 (358, 168) ng•h/mL/mg and the Cmax [1, 7] was 1.37 (1.85, 0.88) μg/mL. For the same molecule, the Cmax/dose [1, 7] was 42.7 (57.8, 27.6) ng/mL/mg, the “AUC∞/dose” value ([1]; Arm III i.v. infusion all doses, day 1, N=6) was 258 ± 104^d ng•h/mL/mg and the AUCt/dose [1, 8] was 198 ± 93.7 ng·h/mL/mg. For the same molecule, the Cmax/dose [1, 8] was 31.8 ± 12.0 ng/mL/mg, the “AUC∞/dose” value ([1]; Arm III i.v. infusion all doses, day 15, N=6) was 303 ± 180^d ng•h/mL/mg and the AUCt/dose [1, 9] was 217 ± 68.0 ng·h/mL/mg. It also gave a Cmax/dose [1, 9] of 36.4 ± 14.7 ng/mL/mg, an AUC(0-inf) [1, 10] of 2190 ± 310 ng·h/mL and a clearance [1, 10] of 61.8 mL/min. It also gave a half-life [1, 10] of 8.5 ± 4.1 h, an AUC(0-t) ([1]; human, plasma, iv, 8 mg, Arm III i.v. infusion 8 mg, day 1, N=4) of 1480 ± 340 ng·h/mL and a Cmax ([1]; human, plasma, iv, 8 mg, Arm III i.v. infusion 8 mg, day 1, N=4, read-out: Cmax) of 0.23 ± 0.08 µg/mL. For the same molecule, the AUC(0-inf) [1, 11] was 2880 ± 1990 ng·h/mL, the clearance [1, 11] was 60.2 mL/min and the AUC(0-t) ([1]; human, plasma, iv, 8 mg, Arm III i.v. infusion 8 mg, day 15, N=4) was 1750 ± 570 ng·h/mL. It also gave a Cmax ([1]; human, plasma, iv, 8 mg, Arm III i.v. infusion 8 mg, day 15, N=4, read-out: Cmax) of 0.25 ± 0.11 µg/mL, an AUC(0-inf) [1, 12] of 2440 ng·h/mL and an AUC(0-t) [1, 12] of 1910 ng·h/mL. It also gave a clearance [1, 12] of 109 mL/min, an AUC(0-inf) [1, 13] of 3450 ng·h/mL and an AUC(0-t) [1, 13] of 3040 ng·h/mL. For the same molecule, the clearance [1, 13] was 77.3 mL/min, the half-life [1, 13] was 9.6 h and the AUC(0-inf) [1, 14] was 9180 ng·h/mL. The AUC(0-t) [1, 14] was 8460 ng·h/mL, the clearance [1, 14] was 75.2 mL/min and the half-life [1, 14] was 9.3 h. For the same molecule, the AUC(0-inf) [1, 15] was 8410 ng·h/mL, the AUC(0-t) [1, 15] was 7300 ng·h/mL and the clearance [1, 15] was 73 mL/min. For the same molecule, the clearance [1, 16] was 74.2 mL/min, the half-life [1, 16] was 9.1 ± 3.3 h and the clearance [1, 17] was 67.3 mL/min. For the same molecule, the half-life [1, 17] was 12.1 ± 4.4 h, the Tmax ([1]; human, plasma, iv, Arm III i.v. infusion 8 mg, day 1, N=4) was 2 ± 0.2 h and the Tmax ([1]; human, plasma, iv, Arm III i.v. infusion all doses, day 1, N=7) was 2 ± 0.2 h. For the same molecule, the IC50 (VEGFR2) was 2 nM, the IC50 (CSF-1R) was […] and the IC50 (Aurora B) was […].

— paper PMC5931107, “Clinical pharmacodynamic/exposure characterisation of the multikinase inhibitor ilorasertib (ABT-348) in a phase 1 dose-escalation trial” (British Journal of Cancer, 2018)
